Reference: patent US4230725A, “Antiviral agent” (Sumitomo Chemical Company, Limited, priority 1977, dated 1980)
Structures can show the parent of a compound that is named as a salt. Where two headings read alike, the source gives them in different places.

Experiments:
[1] = tested on: herpes simplex virus type I (HF strain); assay: Effect on the growth of herpes virus in tissue cultures (tube dilution method); type: cell-based; settings: for MIC: read-out: MIC (minimum virus growth inhibitory concentration); for MIC (minimum virus growth inhibitory concentration): host cells KB
Procedure: The antiviral activity was examined by the tube dilution method. HeLa cells and KB cells for the assay were cultured in YLE medium and Eagle MEM medium in vitro, respectively, containing 10% fetal calf serum. After the cells were grown in a monolayer form, the medium was exchanged to the fresh medium supplemented with 2% fetal calf serum, and then about 1000 TCD50 of herpes simplex virus type I (HF strain) and the test compound were added. After 72 hours' incubation at 37° C., the cytotoxicity of the compound and the virus induced cytopathic effect (CPE) were observed microscopically.
The antiviral activity was expressed in minimum virus growth inhibitory concentration (MIC) and minimum cytotoxic concentration (MCC) in Table 1.

Influenza Ao PR/8 = type: in vivo, ddY male mice; settings: 7 days after infection, dose 0: 4.8
in vitro [2] = settings: human, hela cells
in vitro [3] = settings: human, kb cells
eyes of a rabbit = assay: Herpes keratitis in rabbit: toxicity control eyes (scratched, not infected); type: in vivo; settings: 0.5% eye lotion
Procedure: After 2% cocaine was applied to the eyes of a rabbit anesthetized with barbital, the corneal epithelium of each eye was scratched and infected with herpes simplex virus type I (HF strain).
The treatment with the compound A was carried out as follows: Twelve hours after virus infection, 0.5% eye lotion of the compound A in 1.4% polyvinyl alcohol was applied every two hours, five times a day during seven days.
For seven days after infection, the lesions on the conjunctiva, cornea and iris were daily observed visually prior to the first treatment and recorded according to the scoring method.
Separately from this, eyes of a rabbit were scratched but not infected with virus, one of the eyes was similarly treated with the compound A and the other eye was treated with 1.4% polyvinyl alcohol as toxicity control.

[4] = tested on: herpes simplex virus type I (HF strain); assay: Therapeutic effect on herpes encephalitis in mice; type: in vivo; settings: for Survival ratio: 21st day, untreated 0/10; for Mean survival term: 21 days
Procedure: Mice were anesthetized with ether and were infected intracerebrally […] with about 30 LD50 of herpes simplex virus type I (HF strain). The infected mice were administered with the compound A according to various therapeutic schedules. The therapeutic effects of the compound A were examined on the basis of the survival ratios at the 3rd week after virus infection and the mean survival days.
^a Dose of administration
^b Administration schedule of each route was as follows:
i.c. (intracerebrally): Single administration simultaneously with virus
p.o. (per os): Two administrations per day during 8.5 days from 4 hours
s.c. (subcutaneously): Two administrations per day during 8.5 days from 4
hours after virus infection.
i.v. (intravenously): Single administration 3 hours after virus infection
^c The animals were examined for 21 days after infection, and mean
survival term was determined.
^d Survival ratio on the 21st day after virus infection.

[5] = tested on: herpes and influenza viruses; assay: Antiviral activity, overall statement; settings: against herpes and influenza viruses; in vivo as well as in vitro
Acute toxicity in mice = settings: mouse, in vivo
[6] = about 1000 TCD50, 72 hours at 37° C.

## NC12CC3CC(CC(C3)C1)C2 [Amantadine hydrochloride, reference compound]
[1]; 72 h
  MIC: 50 µg/mL
[1]; [6]
  MIC (minimum virus growth inhibitory concentration): 50 µg/mL
Influenza Ao PR/8; 10 mg/kg subcutaneous, *P < 0.05
  Lung Lesion Score: 4.3
Influenza Ao PR/8; 25 mg/kg subcutaneous, *P < 0.05
  Lung Lesion Score: 4.1
Influenza Ao PR/8; 50 mg/kg subcutaneous, *P < 0.05
  Lung Lesion Score: 4.0
In vitro [2]
  MCC at 72 h: > 50 µg/mL
In vitro [3]
  MCC at 72 h: > 50 µg/mL

## Cl.NC12CCCC(C1)C1CCC2C1 (stereo not drawn) [Compound A, 1-Amino-2,4-ethanobicyclo[3,3,1]nonane hydrochloride]
[1]; host cells HeLa, about 1000 TCD50, 72 hours at 37° C.
  MIC: 2.5 µg/mL
[1]; [6]
  MIC (minimum virus growth inhibitory concentration): 2.5 µg/mL
Eyes of a rabbit; five times a day during seven days, scratched uninfected rabbit eyes
  effect on cure period as compared with the toxicity control: did not prolong the cure period
Eyes of a rabbit; rabbit eyes
  toxicity of the eye lotion: no toxicity
[4]; 5 mg/kg i.c., single administration simultaneously with virus infection
  Survival ratio: 6/10
[4]; 5 mg/kg i.c., single administration simultaneously with virus infection, untreated 5.7
  Mean survival term: 8.3 days
[4]; 10 mg/kg i.v., single administration 3 hours after infection
  Survival ratio: 4/10
[4]; 10 mg/kg i.v., single administration 3 hours after infection, untreated 5.8
  Mean survival term: 8.1 days
[4]; 100 mg/kg p.o., two per day during 8.5 days from 4 hours after infection
  Survival ratio: 4/10
[4]; 100 mg/kg p.o., two per day during 8.5 days from 4 hours after infection, untreated 5.5
  Mean survival term: 7.7 days
[4]; 100 mg/kg s.c., two per day during 8.5 days from 4 hours after infection
  Survival ratio: 5/10
[4]; 100 mg/kg s.c., two per day during 8.5 days from 4 hours after infection, untreated 5.7
  Mean survival term: 7.6 days
Influenza Ao PR/8; 7.5 mg/kg subcutaneous, no asterisk
  Lung Lesion Score: 4.4
Influenza Ao PR/8; 15 mg/kg subcutaneous, *P < 0.05
  Lung Lesion Score: 4.2
Influenza Ao PR/8; 30 mg/kg subcutaneous, *P < 0.05
  Lung Lesion Score: 4.0
[5]
  antiviral activity: very strong antiviral activity
In vitro [2]
  MCC at 72 h: 100 µg/mL
In vitro [3]
  MCC at 72 h: 100 µg/mL
Acute toxicity in mice; iv
  LD50: 58 mg/kg
Acute toxicity in mice; po
  LD50: 320 mg/kg
